Data published in PMC4311893 (ChemMedChem, 2014).

Assays:
[1] = biological target: dimethylarginine dimethylaminohydrolase-1 (DDAH-1) (Homo sapiens, UniProt O94760); experiment: time-dependent inactivation kinetics in competition with ADMA; assay type: biochemical; details: read-out: Ki
[2] = biological target: T1, human arginase-I (Mn-hArgI) (Homo sapiens, UniProt P05089); experiment: urea formation assay, IC50 […] with Cheng-Prusoff Ki; assay type: biochemical
T1 sequence (P05089 1-322): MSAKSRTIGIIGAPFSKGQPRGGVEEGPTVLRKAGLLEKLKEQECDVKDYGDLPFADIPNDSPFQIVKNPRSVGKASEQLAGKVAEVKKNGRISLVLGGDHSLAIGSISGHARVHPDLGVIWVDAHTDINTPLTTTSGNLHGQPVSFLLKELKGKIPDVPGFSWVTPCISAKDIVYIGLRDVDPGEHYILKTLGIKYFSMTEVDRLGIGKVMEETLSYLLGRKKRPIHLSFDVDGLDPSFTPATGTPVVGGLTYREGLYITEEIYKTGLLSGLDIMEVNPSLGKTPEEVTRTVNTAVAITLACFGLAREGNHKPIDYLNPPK

Sequence of dimethylarginine dimethylaminohydrolase-1 (DDAH-1) (O94760 whole entry): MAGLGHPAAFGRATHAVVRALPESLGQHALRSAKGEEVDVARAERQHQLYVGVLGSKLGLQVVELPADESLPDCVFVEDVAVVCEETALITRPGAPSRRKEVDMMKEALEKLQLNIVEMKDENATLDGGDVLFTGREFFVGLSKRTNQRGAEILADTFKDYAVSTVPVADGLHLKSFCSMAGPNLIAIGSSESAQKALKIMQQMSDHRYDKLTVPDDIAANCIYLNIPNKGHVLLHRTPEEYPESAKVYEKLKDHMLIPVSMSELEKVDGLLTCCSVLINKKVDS

Which results are given for N=C(CCl)NCCC[C@H](N)C(=O)O [Cl-NIO, N^5-(1-imino-2-chloroethyl)-L-ornithine]?
KI (inactivation) [1]: 0.0013 ± 0.0006 mM; Ki [2]: 3.1 mM
